For 3 molecules, Kd and IC50 results are on record in BindingDB's records for doi:10.1016/s0960-894x(01)00005-1 (Graduate School of Bioscience and Biotechnology, 2001).

Assay [1] is described as follows: Dissociation constant for TAR RNA.
The nature of assay [2]: Inhibitory activity against peptide binding to the RRE RNA was determined.

The structures appear in SMILES notation. pIC50, pKd: −log10 of the molar value.

`NC1CC(N)C(OC2OC(CNC(=O)c3ccc4ccc5cccc6ccc3c4c56)C(O)C(O)C2N)C(O)C1O` [Pyrene-1-carboxylic acid [(4R,5S,6S)-5-amino-6-((2R,3R,4R)-4,6-diamino-2,3-dihydroxy-cyclohexyloxy)-3,4-dihydroxy-tetrahydro-pyran-2-ylmethyl]-amide] had a pKd in assay [1] of 6.54. `N=C(N)NCCCC(NC(=O)c1ccc2ccc3cccc4ccc1c2c34)C(=O)NCC1OC(OC2C(N)CC(N)C(O)C2O)C(N)C(O)C1O` (stereo not drawn) [Neamine derivative] showed a pKd in assay [1] of 7.52. Regarding `N=C(N)NCCCC(N)C(=O)NCC1OC(OC2C(N)CC(N)C(O)C2O)C(N)C(O)C1O` [2-Amino-5-guanidino-pentanoic acid [(4R,5S,6S)-5-amino-6-((2R,3R,4R)-4,6-diamino-2,3-dihydroxy-cyclohexyloxy)-3,4-dihydroxy-tetrahydro-pyran-2-ylmethyl]-amide], in assay [2], the pIC50 is 6.34.

In general, pKd refers to the negative decadic logarithm of the Kd, by convention in mol/L. Read a low pKd as a high Kd. Broadly, the pIC50 is −log10 of the IC50, conventionally taken in molar units. Higher therefore signals a small IC50.
